Source: patent publication US9199999B2, “Substituted imidazopyrazines” (Bayer Intellectual Property GmbH, priority 2010, dated 2015)
pIC50: −log10 of the molar value.

Molecular target: human kinase Mps-1 (Homo sapiens (Human), UniProt P33981)
Settings: read-out: Mps-1 IC50; N-terminally GST-tagged human full length recombinant Mps-1; 10 μM ATP; 1 μM biotinylated peptide substrate; 60 min at 22° C.

Sequence of human kinase Mps-1 (P33981 whole entry): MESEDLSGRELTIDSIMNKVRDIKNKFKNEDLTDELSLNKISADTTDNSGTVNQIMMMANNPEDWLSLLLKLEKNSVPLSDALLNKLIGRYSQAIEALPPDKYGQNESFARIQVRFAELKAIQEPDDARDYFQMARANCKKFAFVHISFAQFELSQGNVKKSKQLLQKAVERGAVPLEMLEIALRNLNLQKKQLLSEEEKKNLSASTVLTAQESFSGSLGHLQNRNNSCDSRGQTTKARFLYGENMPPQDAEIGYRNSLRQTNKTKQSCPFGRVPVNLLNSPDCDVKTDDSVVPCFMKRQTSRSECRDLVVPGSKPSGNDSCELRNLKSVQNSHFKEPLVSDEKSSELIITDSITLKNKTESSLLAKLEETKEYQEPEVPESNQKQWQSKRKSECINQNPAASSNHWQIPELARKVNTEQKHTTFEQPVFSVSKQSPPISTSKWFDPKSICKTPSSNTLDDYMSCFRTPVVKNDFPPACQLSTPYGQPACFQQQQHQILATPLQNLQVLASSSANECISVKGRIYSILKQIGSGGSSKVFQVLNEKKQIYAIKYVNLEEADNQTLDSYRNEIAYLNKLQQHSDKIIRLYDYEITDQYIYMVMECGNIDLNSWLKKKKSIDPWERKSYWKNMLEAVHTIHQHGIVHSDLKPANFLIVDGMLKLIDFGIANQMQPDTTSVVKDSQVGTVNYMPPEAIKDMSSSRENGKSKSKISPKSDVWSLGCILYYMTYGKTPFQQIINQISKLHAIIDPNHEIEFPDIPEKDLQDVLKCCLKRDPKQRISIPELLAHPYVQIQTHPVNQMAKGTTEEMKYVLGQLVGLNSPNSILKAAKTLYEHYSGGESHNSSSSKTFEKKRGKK

Row | SMILES | pIC50
1 | Cc1cc(-c2cnc3c(NCCC(F)(F)F)nc(C#CCO)cn23)ccc1C(=O)NC1(C)CC1 [Example 73, 4-{6-(3-hydroxyprop-1-yn-1-yl)-8-[(3,3,3-trifluoropropyl)amino]imidazo[1,2-a]pyrazin-3-yl}-2-methyl-N-(1-methylcyclopropyl)benzamide] | 6.92
2 | C#Cc1cn2c(-c3ccc(C(=O)NCC(F)F)c(C)c3)cnc2c(NCCC(F)(F)F)n1 [Example 65, N-(2,2-difluoroethyl)-4-{6-ethynyl-8-[(3,3,3-trifluoropropyl)amino]imidazo[1,2-a]pyrazin-3-yl}-2-methylbenzamide] | 6.67
3 | C#Cc1cn2c(-c3ccc(C(=O)NCC)c(C)c3)cnc2c(NCCC(F)(F)F)n1 [Example 64, N-ethyl-4-{6-ethynyl-8-[(3,3,3-trifluoropropyl)amino]imidazo[1,2-a]pyrazin-3-yl}-2-methylbenzamide] | 6.92
4 | COC1(NC(=O)c2ccc(-c3cnc4c(NCCC(F)(F)F)nc(C#CCO)cn34)cc2C)CC1 [Example 75, 4-{6-(3-hydroxyprop-1-yn-1-yl)-8-[(3,3,3-trifluoropropyl)amino]imidazo[1,2-a]pyrazin-3-yl}-N-(1-methoxycyclopropyl)-2-methylbenzamide] | 6.51
5 | OCC#Cc1cn2c(-c3ccc(-c4cnc(C5CC5)[nH]4)cc3)cnc2c(NC[C@H](O)CO)n1 [Example 50, (2S)-3-({3-[4-(2-cyclopropyl-1H-imidazol-5-yl)phenyl]-6-(3-hydroxyprop-1-yn-1-yl)imidazo[1,2-a]pyrazin-8-yl}amino)propane-1,2-diol] | 6.89
6 | Cc1cc(-c2cnc3c(NCC(C)C)nc(C#CCO)cn23)ccc1C(=O)NC1CC1 [Example 49, N-cyclopropyl-4-{6-(3-hydroxyprop-1-yn-1-yl)-8-[(2-methylpropyl)amino]imidazo[1,2-a]pyrazin-3-yl}-2-methylbenzamide] | 7.85
7 | COc1cc(C(=O)NC2CC2)ccc1-c1cnc2c(NCCCN)nc(C#CCO)cn12 [Example 11, 4-{8-[(3-Aminopropyl)amino]-6-(3-hydroxyprop-1-yn-1-yl)imidazo[1,2-a]pyrazin-3-yl}-N-cyclopropyl-3-methoxybenzamide] | 6.00
8 | CC(C)CNc1nc(C#CCO)cn2c(-c3ccc(-c4cnc(C5CC5)[nH]4)cc3)cnc12 [Example 54, 3-{3-[4-(2-Cyclopropyl-1H-imidazol-5-yl)phenyl]-8-(isobutylamino)imidazo[1,2-a]pyrazin-6-yl}prop-2-yn-1-ol] | 8.08
9 | CC(C)(O)C#Cc1cn2c(-c3ccc(C(=O)NC4CC4)cc3)cnc2c(NCCCCO)n1 [Example 8, N-cyclopropyl-4-{8-[(4-hydroxybutyl)amino]-6-(3-hydroxy-3-methylbut-1-yn-1-yl)imidazo[1,2-a]pyrazin-3-yl}benzamide] | 7.66
10 | OCC#Cc1cn2c(-c3ccc(-c4cnc(C5CC5)[nH]4)cc3)cnc2c(NCCCCO)n1 [Example 56, 4-({3-[4-(2-Cyclopropyl-1H-imidazol-5-yl)phenyl]-6-(3-hydroxyprop-1-yn-1-yl)imidazo[1,2-a]pyrazin-8-yl}amino)butan-1-ol] | 7.64
11 | C=C(C)CNc1nc(C#CCO)cn2c(-c3ccc(-c4cnc(C5CC5)[nH]4)cc3)cnc12 [Example 52, 3-{3-[4-(2-Cyclopropyl-1H-imidazol-5-yl)phenyl]-8-[(2-methylprop-2-en-1-yl)amino]imidazo[1,2-a]pyrazin-6-yl}prop-2-yn-1-ol] | 7.89
12 | CCNC(=O)c1ccc(-c2cnc3c(NCCC(F)(F)F)nc(C#CCO)cn23)cc1C [Example 71, N-ethyl-4-{6-(3-hydroxyprop-1-yn-1-yl)-8-[(3,3,3-trifluoropropyl)amino]imidazo[1,2-a]pyrazin-3-yl}-2-methylbenzamide] | 6.82
13 | O=C(NC1CC1)c1ccc(-c2cnc3c(NCCCO)nc(C#CCO)cn23)cc1 [Example 1, N-cyclopropyl-4-{8-[(3-hydroxypropyl)amino]-6-(3-hydroxyprop-1-yn-1-yl)imidazo[1,2-a]pyrazin-3-yl}benzamide] | 7.51
14 | Cc1cc(-c2cnc3c(NCCC(F)(F)F)nc(C#CCN4CCS(=O)(=O)CC4)cn23)ccc1C(=O)NC1CC1 [Example 62, N-cyclopropyl-4-{6-[3-(1,1-dioxidothiomorpholin-4-yl)prop-1-yn-1-yl]-8-[(3,3,3-trifluoropropyl)amino]imidazo[1,2-a]pyrazin-3-yl}-2-methylbenzamide] | 8.38
15 | O=C(NC1CC1)c1ccc(-c2cnc3c(NCCCCO)nc(C#CC4(O)CCCC4)cn23)cc1 [Example 9, N-cyclopropyl-4-{8-[(4-hydroxybutyl)amino]-6-[(1-hydroxycyclopentyl)ethynyl]imidazo[1,2-a]pyrazin-3-yl}benzamide] | 8.00
16 | OCC#Cc1cn2c(-c3ccc(-c4cnc(C5CC5)[nH]4)cc3)cnc2c(NCCCO)n1 [Example 59, 3-{3-[4-(2-Cyclopropyl-1H-imidazol-5-yl)phenyl]-8-[(3-hydroxypropyl)amino]imidazo[1,2-a]pyrazin-6-yl}prop-2-yn-1-ol] | 7.28

Row | SMILES | pIC50
17 | Cc1cc(-c2cnc3c(NCCC(F)(F)F)nc(C#CCO)cn23)ccc1C(=O)NCC(F)F [Example 72, N-(2,2-difluoroethyl)-4-{6-(3-hydroxyprop-1-yn-1-yl)-8-[(3,3,3-trifluoropropyl)amino]imidazo[1,2-a]pyrazin-3-yl}-2-methylbenzamide] | 6.89
18 | CC(C)(O)CNc1nc(C#CCO)cn2c(-c3ccc(C(=O)NC4CC4)cc3)cnc12 [Example 10, N-cyclopropyl-4-{8-[(2-hydroxy-2-methylpropyl)amino]-6-(3-hydroxyprop-1-yn-1-yl)imidazo[1,2-a]pyrazin-3-yl}benzamide] | 7.42
19 | C#Cc1cn2c(-c3ccc(C(=O)NC4(C)CC4)c(C)c3)cnc2c(NCCC(F)(F)F)n1 [Example 66, 4-{6-ethynyl-8-[(3,3,3-trifluoropropyl)amino]imidazo[1,2-a]pyrazin-3-yl}-2-methyl-N-(1-methylcyclopropyl)benzamide] | 6.81
20 | CNC(=O)c1ccc(-c2cnc3c(NCCC(F)(F)F)nc(C#CCO)cn23)cc1C [Example 70, 4-{6-(3-Hydroxyprop-1-yn-1-yl)-8-[(3,3,3-trifluoropropyl)amino]imidazo[1,2-a]pyrazin-3-yl}-N,2-dimethylbenzamide] | 7.16
21 | OCC#Cc1cn2c(-c3ccc(-c4cnc(C5CC5)[nH]4)cc3)cnc2c(NCC2CCC2)n1 [Example 58, 3-{8-[(Cyclobutylmethyl)amino]-3-[4-(2-cyclopropyl-1H-imidazol-5-yl)phenyl]imidazo[1,2-a]pyrazin-6-yl}prop-2-yn-1-ol] | 8.28
22 | C#Cc1cn2c(-c3ccc(C(=O)NC4(C#N)CC4)c(C)c3)cnc2c(NCCC(F)(F)F)n1 [Example 67, N-(1-cyanocyclopropyl)-4-{6-ethynyl-8-[(3,3,3-trifluoropropyl)amino]imidazo[1,2-a]pyrazin-3-yl}-2-methylbenzamide] | 6.78
23 | C#Cc1cn2c(-c3ccc(C(=O)NC4(OC)CC4)c(C)c3)cnc2c(NCCC(F)(F)F)n1 [Example 68, 4-{6-ethynyl-8-[(3,3,3-trifluoropropyl)amino]imidazo[1,2-a]pyrazin-3-yl}-N-(1-methoxycyclopropyl)-2-methylbenzamide] | 6.52
24 | C#Cc1cn2c(-c3ccc(C(=O)NC)c(C)c3)cnc2c(NCCC(F)(F)F)n1 [Example 63, 4-{6-Ethynyl-8-[(3,3,3-trifluoropropyl)amino]imidazo[1,2-a]pyrazin-3-yl}-N,2-dimethylbenzamide] | 6.87
25 | C=CCNc1nc(C#CCO)cn2c(-c3ccc(-c4cnc(C5CC5)[nH]4)cc3)cnc12 [Example 53, 3-{8-(Allylamino)-3-[4-(2-cyclopropyl-1H-imidazol-5-yl)phenyl]imidazo[1,2-a]pyrazin-6-yl}prop-2-yn-1-ol] | 7.74
26 | CC(C)CNc1nc(C#Cc2ccccc2)cn2c(-c3ccc(S(=O)(=O)NC4CC4)cc3)cnc12 [Example 2, N-cyclopropyl-4-[8-(isobutylamino)-6-(phenylethynyl)imidazo[1,2-a]pyrazin-3-yl]benzenesulfonamide] | 4.70
27 | CC(C)CNc1nc(C#CCO)cn2c(-c3ccc(S(=O)(=O)NC4CC4)cc3)cnc12 [Example 4, N-cyclopropyl-4-[6-(3-hydroxyprop-1-yn-1-yl)-8-(isobutylamino)imidazo[1,2-a]pyrazin-3-yl]benzenesulfonamide] | 5.74
28 | O=S1(=O)CCN(CC#Cc2cn3c(-c4ccc(-c5cnc(C6CC6)[nH]5)cc4)cnc3c(NCCC(F)(F)F)n2)CC1 [Example 61, 3-[4-(2-cyclopropyl-1H-imidazol-5-yl)phenyl]-6-[3-(1,1-dioxidothiomorpholin-4-yl)prop-1-yn-1-yl]-N-(3,3,3-trifluoropropyl)imidazo[1,2-a]pyrazin-8-amine] | 8.17
29 | Cc1cc(-c2cnc3c(NCCC(F)(F)F)nc(C#CCO)cn23)ccc1C(=O)NC1(C#N)CC1 [Example 74, N-(1-cyanocyclopropyl)-4-{6-(3-hydroxyprop-1-yn-1-yl)-8-[(3,3,3-trifluoropropyl)amino]imidazo[1,2-a]pyrazin-3-yl}-2-methylbenzamide] | 7.01
30 | OCC#Cc1cn2c(-c3ccc(-c4cnc(C5CC5)[nH]4)cc3)cnc2c(NCCCC(F)(F)F)n1 [Example 51, 3-{3-[4-(2-Cyclopropyl-1H-imidazol-5-yl)phenyl]-8-[(4,4,4-trifluorobutyl)amino]imidazo[1,2-a]pyrazin-6-yl}prop-2-yn-1-ol] | 7.82
31 | OCC#Cc1cn2c(-c3ccc(-c4cnc(C5CC5)[nH]4)cc3)cnc2c(NCCC(F)(F)F)n1 [Example 57, 3-{3-[4-(2-Cyclopropyl-1H-imidazol-5-yl)phenyl]-8-[(3,3,3-trifluoropropyl)amino]imidazo[1,2-a]pyrazin-6-yl}prop-2-yn-1-ol] | 8.15
32 | CC(C)CNc1nc(C#CCO)cn2c(-c3cccc(-c4cnc(C5CC5)[nH]4)c3)cnc12 [Example 55, 3-{3-[3-(2-Cyclopropyl-1H-imidazol-5-yl)phenyl]-8-(isobutylamino)imidazo[1,2-a]pyrazin-6-yl}prop-2-yn-1-ol] | 6.28
